From patent publication US10513495B2, “Polymorph of pimavanserin tartrate and preparation method thereof and use of same” (SHANGHAI BEGREAT PHARMATECH, priority 2016, dated 2019) come the findings set out here.

The data set is described as follows: Powder fluidity test (angle of repose). In kind it is physicochemical. Particulars: for powder flowability (in words): Form III compared to existing Pimavanserin tartrate Form A, B and C; for angle of repose: powder through two funnels onto 7 cm diameter petri dish, α=arc tg(H/R), average of three measurements, ≤30 degrees good, >40 degrees very poor flowability, tartrate. As to the method: Powder fluidity test: the tray is a 7 cm diameter petri dish. The two glass funnels are overlapped on the iron frame. The distance between the lower funnel outlet and the Petri dish is 3.5-6.0 cm. Pimavanserin tartrate salt was added slowly from the upper funnel, and the sample was gradually accumulated on the petri dish through the buffer of the two funnels to form a cone until the highest cone was obtained. Determine the height H of the cone, measure each sample three times, take the average value, and calculate the angle of repose according to the following formula: α=arc tg(H/R) where α is the angle of repose and R is the radius of the dish
When the angle of repose of the powder is less than or equal to 30 degrees, it means the flowability of this powder is good. While in case, 40 degrees or less of the powder angle of repose, this powder can satisfy the demand for fluidity in the production process. When the angle of repose of the powder is more than 40 degrees, it means the very poor flowability of the drug powder which may cause the troubles above mentioned during the drug manufacturing process.

Structures are written as SMILES. Structures can show the parent of a compound that is named as a salt.

`CC(C)COc1ccc(CNC(=O)N(Cc2ccc(F)cc2)C2CCN(C)CC2)cc1` [Form C, N-(4-fluorobenzyl)-N-(1-methylpiperidin-4-yl)-N′-[4-(2-methylpropoxy)phenylmethyl]urea tartrate]: the “powder flowability (in words)” value is recorded as “poor” and the angle of repose was determined as 41°.
The corresponding values for `CC(C)COc1ccc(CNC(=O)N(Cc2ccc(F)cc2)C2CCN(C)CC2)cc1` [Form B, N-(4-fluorobenzyl)-N-(1-methylpiperidin-4-yl)-N′-[4-(2-methylpropoxy)phenylmethyl]urea tartrate] are “poor” and 43°.
Turning to `CC(C)COc1ccc(CNC(=O)N(Cc2ccc(F)cc2)C2CCN(C)CC2)cc1` [Form III, N-(4-fluorobenzyl)-N-(1-methylpiperidin-4-yl)-N′-[4-(2-methylpropoxy)phenylmethyl]urea tartrate], the “powder flowability (in words)” value is given as “significantly improves the powder flowability” and the angle of repose is on record as 32°.
The corresponding values for `CC(C)COc1ccc(CNC(=O)N(Cc2ccc(F)cc2)C2CCN(C)CC2)cc1` [Form A, N-(4-fluorobenzyl)-N-(1-methylpiperidin-4-yl)-N′-[4-(2-methylpropoxy)phenylmethyl]urea tartrate] are “poor” and 45°.
